Here are results for 20 compounds from patent publication US20250145589A1, “PYRIDINE DERIVATIVE AND USE THEREOF” (SICHUAN HUIYU PHARMACEUTICAL CO., LTD., priority 2021, published 2025).

For one experiment, the target named is PI3Kα (Homo sapiens (Human), UniProt P42336). In words: Inhibition of PI3Kα efficacy assay (ADP-Glo kinase assay). It is filed as biochemical. Particulars: Table 4; read-out: PI3Kα inhibitory activity (IC50). The essentials: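 Eight five-fold dilutions of compound (2 mM DMSO stock) tested; kinase reaction with PI and ATP ran 60 min at RT, followed by ADP-Glo and detection reagent steps of 40 min each. Four-parameter logistic fitting gave IC50 values.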
Chain of PI3Kα (P42336 whole entry): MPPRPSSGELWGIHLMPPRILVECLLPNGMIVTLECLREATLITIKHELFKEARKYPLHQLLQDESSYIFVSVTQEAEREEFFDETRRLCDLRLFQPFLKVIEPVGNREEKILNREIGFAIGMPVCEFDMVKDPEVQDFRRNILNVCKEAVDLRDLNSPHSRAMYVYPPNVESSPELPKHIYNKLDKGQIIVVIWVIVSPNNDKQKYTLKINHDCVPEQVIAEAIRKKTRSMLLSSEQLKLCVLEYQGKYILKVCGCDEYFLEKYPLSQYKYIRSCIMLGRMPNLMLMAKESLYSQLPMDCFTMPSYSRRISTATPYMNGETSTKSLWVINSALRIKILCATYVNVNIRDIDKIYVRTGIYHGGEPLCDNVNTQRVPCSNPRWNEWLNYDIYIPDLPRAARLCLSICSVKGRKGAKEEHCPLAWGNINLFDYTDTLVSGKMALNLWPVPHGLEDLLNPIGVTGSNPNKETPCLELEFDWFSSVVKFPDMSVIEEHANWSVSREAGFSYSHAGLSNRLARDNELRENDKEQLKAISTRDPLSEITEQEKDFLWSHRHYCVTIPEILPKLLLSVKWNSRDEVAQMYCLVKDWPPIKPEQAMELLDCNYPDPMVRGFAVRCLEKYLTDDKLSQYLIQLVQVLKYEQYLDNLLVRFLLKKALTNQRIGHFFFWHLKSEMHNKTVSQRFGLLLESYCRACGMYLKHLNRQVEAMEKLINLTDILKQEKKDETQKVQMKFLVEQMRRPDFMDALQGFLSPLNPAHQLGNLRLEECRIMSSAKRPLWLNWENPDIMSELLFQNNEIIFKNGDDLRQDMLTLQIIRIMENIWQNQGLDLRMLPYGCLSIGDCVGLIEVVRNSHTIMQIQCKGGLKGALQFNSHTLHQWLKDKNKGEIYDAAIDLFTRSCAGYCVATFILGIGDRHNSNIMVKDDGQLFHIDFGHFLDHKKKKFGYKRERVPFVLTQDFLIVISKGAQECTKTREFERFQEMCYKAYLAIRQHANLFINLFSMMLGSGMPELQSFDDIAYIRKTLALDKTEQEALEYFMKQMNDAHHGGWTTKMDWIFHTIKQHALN
Chain of PI3Kα (P27986 whole entry partner): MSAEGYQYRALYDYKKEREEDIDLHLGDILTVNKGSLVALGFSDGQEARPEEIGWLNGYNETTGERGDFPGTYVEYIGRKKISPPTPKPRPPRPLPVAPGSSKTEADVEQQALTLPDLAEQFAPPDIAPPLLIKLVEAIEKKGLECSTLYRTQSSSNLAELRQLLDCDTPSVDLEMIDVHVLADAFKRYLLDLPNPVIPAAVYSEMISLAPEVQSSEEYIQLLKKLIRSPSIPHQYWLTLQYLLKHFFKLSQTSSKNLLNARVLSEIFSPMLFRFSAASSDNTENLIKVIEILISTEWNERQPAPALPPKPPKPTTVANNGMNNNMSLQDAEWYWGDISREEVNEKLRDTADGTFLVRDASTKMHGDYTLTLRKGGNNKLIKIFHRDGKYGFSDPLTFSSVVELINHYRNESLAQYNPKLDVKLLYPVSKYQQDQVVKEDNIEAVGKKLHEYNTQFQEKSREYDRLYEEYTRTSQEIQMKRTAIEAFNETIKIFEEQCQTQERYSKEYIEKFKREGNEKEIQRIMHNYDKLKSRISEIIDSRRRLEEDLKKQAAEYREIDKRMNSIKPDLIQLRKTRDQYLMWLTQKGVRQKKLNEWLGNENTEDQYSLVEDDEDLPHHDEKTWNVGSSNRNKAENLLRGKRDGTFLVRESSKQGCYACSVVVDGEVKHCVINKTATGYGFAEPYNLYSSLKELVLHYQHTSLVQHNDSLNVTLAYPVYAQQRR

Experiment [1] has as its system NCI-H358 cells (KRAS G12C mutant). In words: NCI-H358 cell proliferation inhibition (CellTiter-Glo). Format: cell-based. The conditions noted are these: Homo sapiens, NCI-H358, 72 h; H358 cells (G12C mutation), 3 days, Table 6; read-out: NCI-H358 (IC50).
The test system of experiment [2] is MIA PaCa-2 cells (KRAS G12C mutant). In words: MIA PaCa-2 cell anti-proliferation (CellTiter-Glo). The conditions noted are these: Homo sapiens, 72 h; MIA Paca-2 cells, 3 days, Table 7; read-out: MIA PaCa-2 (IC50). Format: cell-based. The protocol: The number of viable cells was determined using the CellTiter-Glo® assay to evaluate the anti-proliferation efficacy of compounds. […] The compounds were serially diluted 4-fold in DMSO to obtain 9 concentrations, and then further diluted with DMEM (10% FBS+2.5% horse serum+1% penicillin/streptomycin) cell culture medium to obtain the working solutions (2×), 15 μL of each working solution was added to the cell culture supernatant in each well, and the cells were further incubated for 3 days at 37° C. with 5% CO2. The plate was then equilibrated with CellTiter-Glo® reagent at room temperature (25° C.) for 30 minutes. After adding 25 μL of CellTiter-Glo®, reagent, the cells were thoroughly mixed with the CellTiter-Glo® reagent using a microplate shaker for 2 minutes, and then incubated at room temperature for at least 30 minutes. […] Data were analyzed using GraphPad Prism for IC50 values (Note: The negative control refers to the group without inhibitor).

pIC50: −log10 of the molar value.

In the case of `CC(=O)/C=C/C(=O)N1CCN(c2ncnc3ccc(-c4cnc(OC(F)(F)F)c(NS(=O)(=O)c5ccc(F)cc5F)c4)cc23)CC1` [Example 194, (E)-2,4-difluoro-N-(5-(4-(4-(4-oxopent-2-enoyl)piperazin-1-yl)quinazolin-6-yl)-2-(trifluoromethoxy)pyridin-3-yl)benzenesulfonamide], the results for the pIC50 (at PI3Kα; in experiment [1]; in experiment [2]) were 8.55, 6.14 and 6.11, respectively.
Turning to `COc1ncc(-c2ccc3ncnc(C4=CCN(C(=O)/C=C/C(C)=O)CC4)c3n2)cc1NS(=O)(=O)c1sc(C)nc1C` [Example 237, (E)-N-(2-methoxy-5-(4-(1-(4-oxopent-2-enoyl)-1,2,3,6-tetrahydropyridin-4-yl)pyrido[3,2-d]pyrimidin-6-yl)pyridin-3-yl)-2,4-dimethylthiazole-5-sulfonamide], the results for the pIC50 (at PI3Kα; in experiment [1]; in experiment [2]) were 8.28, 7.23 and 7.15, respectively.
Taken in the same sequence, the figures for `CCOc1ncc(-c2ccc3ncnc(N4CCN(C(=O)/C=C/C(C)=O)CC4)c3n2)cc1NS(=O)(=O)c1ccccc1F` [Example 227, (E)-N-(2-ethoxy-5-(4-(4-(4-oxopent-2-enoyl)piperazin-1-yl)pyrido[3,2-d]pyrimidin-6-yl)pyridin-3-yl)-2-fluorobenzene-sulfonamide] were 8.62, 7.08 and 7.12.
As for `CSc1ncc(-c2ccc3ncnc(N4CCN(C(=O)/C=C/C(C)=O)CC4)c3c2)cc1NS(=O)(=O)c1ccc(F)cc1F` [Example 182, (E)-2,4-difluoro-N-(2-(methylthio)-5-(4-(4-(4-oxopent-2-enoyl)piperazin-1-yl)quinazolin-6-yl)pyridin-3-yl)benzene-sulfonamide], the negative logarithm of the IC50 (pIC50) – broadly, the IC50 on a negative log10 scale, so that one unit is a factor of ten – was 9.19 at PI3Kα, 6.64 in experiment [1] and 6.70 in experiment [2].
For `COc1ncc(-c2ccc3ncnc(N4CCN(C(=O)/C=C/C(C)=O)CC4)c3n2)cc1NS(=O)(=O)c1ccc(C(F)(F)F)cc1F` [Example 221, (E)-2-fluoro-N-(2-methoxy-5-(4-(4-(4-oxopent-2-enoyl)piperazin-1-yl)pyrido[3,2-d]pyrimidin-6-yl)pyridin-3-yl)-4-(trifluoro-methyl)benzene-sulfonamide], in that order: 8.66, 7.37 and 7.22.
Turning to `CC(=O)/C=C/C(=O)N1CCN(c2ncnc3ccc(-c4cnc(C(F)(F)F)c(NS(=O)(=O)c5ccc(F)cc5F)c4)cc23)CC1` [Example 192, (E)-2,4-difluoro-N-(5-(4-(4-(4-oxopent-2-enoyl)piperazin-1-yl)quinazolin-6-yl)-2-(tri-fluoromethyl)pyridin-3-yl) benzene-sulfonamide], the pIC50 on PI3Kα was 8.03; in experiment [1] it was 6.11; in experiment [2] it was 6.08.
For `COc1ncc(-c2ccc3ncnc(N4CCN(C(=O)/C=C\C(=O)C(F)(F)F)CC4)c3c2)cc1NS(=O)(=O)c1ccc(F)cc1F` [Example 248, (Z)-2,4-difluoro-N-(2-methoxy-5-(4-(4-(5,5,5-trifluoro-4-oxopent-2-enoyl)piperazin-1-yl)quinazolin-6-yl)pyridin-3-yl)benzenesulfonamide], in that order: 8.64, 6.94 and 7.36.
As to `COc1ncc(-c2ccc3ncnc(N4CC5CCC(C4)N5C(=O)/C=C/C(C)=O)c3n2)cc1NS(=O)(=O)c1c(F)cccc1F` [Example 137, 2,6-difluoro-N-(2-methoxy-5-(4-(8-((E)-4-oxopent-2-enoyl)-3,8-diazabicyclo[3.2.1]octan-3-yl)pyrido[3,2-d]pyrimidin-6-yl)pyridin-3-yl)benzenesulfonamide], in experiment [2], the pIC50 is 8.17.
Regarding `CCOc1ncc(-c2ccc3ncnc(N4CCN(C(=O)/C=C/C(C)=O)CC4)c3c2)cc1NS(=O)(=O)c1ccccc1F` [Example 190, (E)-N-(2-ethoxy-5-(4-(4-(4-oxopent-2-enoyl)piperazin-1-yl)quinazolin-6-yl)pyridin-3-yl)-2-fluoro-benzene-sulfonamide], the negative logarithm of the IC50 (pIC50) at PI3Kα is 8.02; in experiment [1] it was 6.95; in experiment [2], 6.97.
On to `COc1ncc(-c2ccc3ncnc(C4=CCN(C(=O)/C=C/C(C)=O)CC4)c3n2)cc1NS(=O)(=O)c1c(F)cccc1F` [Example 239, (E)-2,6-difluoro-N-(2-methoxy-5-(4-(1-(4-oxopent-2-enoyl)-1,2,3,6-tetrahydropyridin-4-yl)pyrido[3,2-d]pyrimidin-6-yl)pyridin-3-yl)benzenesulfonamide], for which the negative-log IC50 (pIC50) is 8.19 on PI3Kα, 7.26 in experiment [1] and 7.15 in experiment [2].
For the compound `C=CC(=O)N1CCN(c2ncnc3ccc(-c4cnc(OC)c(NS(=O)(=O)c5c(F)cccc5F)c4)nc23)CC1` [Example 214, N-(5-(4-(4-acryloyl-piperazin-1-yl)pyrido[3,2-d]pyrimidin-6-yl)-2-methoxy-pyridin-3-yl)-2,6-difluoro-benzene-sulfonamide], the negative-log IC50 (pIC50) at PI3Kα was 8.68; in experiment [1] it was 7.90; in experiment [2] it was 8.20.
As to `CCC(=O)/C=C/C(=O)N1CCN(c2ncnc3ccc(-c4cnc(OC)c(NS(=O)(=O)c5c(F)cccc5F)c4)nc23)CC1` [Example 212, (E)-2,6-difluoro-N-(2-methoxy-5-(4-(4-(4-oxohex-2-enoyl)piperazin-1-yl)pyrido[3,2-d]pyrimidin-6-yl)pyridin-3-yl) benzene-sulfonamide], the pIC50 at PI3Kα was 8.42; in experiment [1], 7.82; in experiment [2], 7.85.
With `COC/C=C/C(=O)N1CCN(c2ncnc3ccc(-c4cnc(OC)c(NS(=O)(=O)c5c(F)cccc5F)c4)nc23)CC1` [Example 215, (E)-2,6-difluoro-N-(2-methoxy-5-(4-(4-(4-methoxybut-2-enoyl)piperazin-1-yl)pyridino [3,2-d]pyrimidin-6-yl)pyridin-3-yl) benzene-sulfonamide], the pIC50 on PI3Kα was 8.62; in experiment [1] it was 8.00; in experiment [2] it was 8.20.
On to `COc1ncc(-c2ccc3ncnc(N4CCN(C(=O)/C=C/C(F)(F)F)CC4)c3n2)cc1NS(=O)(=O)c1c(F)cccc1F` [Example 216, (E)-2,6-difluoro-N-(2-methoxy-5-(4-(4-(4,4,4-trifluorobut-2-enoyl)piperazin-1-yl)pyridino [3,2-d]pyrimidin-6-yl)pyridin-3-yl)benzene-sulfonamide], for which the pIC50 on PI3Kα is 9.00; in experiment [1] it was 7.25; in experiment [2], 7.32.
With `COc1ncc(-c2ccc3ncnc(N4CCN(C(=O)/C=C/C(C)=O)C[C@@H]4C)c3n2)cc1NS(=O)(=O)c1c(F)cccc1F` [Example 138, (S,E)-2,6-difluoro-N-(2-methoxy-5-(4-(2-methyl-4-(4-oxopent-2-enoyl)piperazin-1-yl)pyrido[3,2-d]pyrimidin-6-yl)pyridin-3-yl)benzenesulfonamide], in experiment [2], the pIC50 is 7.98.
As to `C=C(F)C(=O)N1CCN(c2ncnc3ccc(-c4cnc(OC)c(NS(=O)(=O)c5c(F)cccc5F)c4)nc23)CC1` [Example 211, 2,6-difluoro-N-(5-(4-(4-(2-fluoroacryloyl)piperazin-1-yl)pyrido[3,2-d]pyrimidin-6-yl)-2-methoxy-pyridin-3-yl)benzene-sulfonamide], the negative logarithm of the IC50 (pIC50) was 8.77 on PI3Kα, 7.89 in experiment [1] and 7.98 in experiment [2].
For the compound `COc1ncc(-c2ccc3ncnc(N4CCN(C(=O)/C=C/C(C)=O)CC4)c3n2)cc1NS(=O)(=O)c1ccc(F)cc1Cl` [Example 135, (E)-2-chloro-4-fluoro-N-(2-methoxy-5-(4-(4-(4-oxopent-2-enoyl)piperazin-1-yl)pyrido[3,2-d]pyrimidin-6-yl)pyridin-3-yl)benzenesulfonamide], in experiment [2], the negative logarithm of the IC50 (pIC50) is 8.04.
`C=CS(=O)(=O)N1CCN(c2ncnc3ccc(-c4cnc(OC)c(NS(=O)(=O)c5ccc(F)cc5F)c4)cc23)CC1` [Example 207, 2,4-difluoro-N-(2-methoxy-5-(4-(4-(vinylsulfonyl)piperazin-1-yl)quinazolin-6-yl)pyridin-3-yl)benzenesulfonamide]: the negative-log IC50 (pIC50) in experiment [1] was 7.40; in experiment [2] it was 7.13.
For `COc1ncc(-c2ccc3ncnc(N4CCN(C(=O)/C=C/C(C)=O)CC4)c3n2)cc1NS(=O)(=O)c1ccc(F)cc1` [Example 134, (E)-4-fluoro-N-(2-methoxy-5-(4-(4-(4-oxopent-2-enoyl)piperazin-1-yl)pyrido[3,2-d]pyrimidin-6-yl)pyridin-3-yl)benzenesulfonamide], in experiment [2], the pIC50 is 7.71.
On the same count and under the same terms, the value for `COc1ncc(-c2ccc3ncnc(N4CCC5(CC4)CN(C(=O)/C=C/C(C)=O)C5)c3n2)cc1NS(=O)(=O)c1c(F)cccc1F` [Example 136, (E)-2,6-difluoro-N-(2-methoxy-5-(4-(2-(4-oxopent-2-enoyl)-2,7-diazaspiro[3.5]nonan-7-yl)pyrido[3,2-d]pyrimidin-6-yl)pyridin-3-yl)benzenesulfonamide] was 8.18.
